Columns and labels:
[1] = Measurement of vapor pressure (vapor-liquid equilibrium apparatus)
Procedure: The sample (80 mL in a cell) was tested for vapor pressure at (25° C.) by using a vapor-liquid equilibrium measuring apparatus (VLE autolabo, from TOYO KOATSU Co., Ltd.).

[2] = Measurement of relative permittivity (LCR meter, 100 kHz, 1 V); type: physicochemical
Procedure: The sample (100 mL) was tested for relative permittivity at 25° C. at a frequency of 100 kHz and a voltage of 1 V by using an LCR meter (HP4284A, with HP16452A electrode for liquid, from Hewlett Packard).

[3] = Solubility of ingredient (B) in tooth whitening ingredient (A), visual check for undissolved residues; details: for Solubility in PEG#300 (Av. MW 280-320): 0.1 g in 100 g PEG#300, 37° C.; for Solubility in 1,3-butylene glycol: 0.1 g in 100 g 1,3-butylene glycol
Procedure: (§1) If the ingredient (B) is liquid, the term “is precipitated by an aqueous solution of calcium chloride” means that the ingredient (B) forms precipitates or becomes turbid.
A sample (0.1 g) of the ingredient (B) is added to 100 g of the tooth whitening ingredient (A), and the resulting mixture is stirred at 37° C. for 16 hours and allowed to stand at 37° C. for 24 hours. The mixture is visually examined for undissolved residues of the ingredient (B).
Criterion for Overall Rating: • ◯: More than 0.1 g is soluble in 100 g of ingredient (A) and less than 0.1 g is soluble in 100 g of aqueous solution of 1 mmol/L calcium chloride.
X: Other than specified above.

[4] = Solubility of ingredient (B) in aqueous solution of 1 mmol/L calcium chloride; details: 0.1 g in 100 g aqueous 1 mmol/L calcium chloride, 37° C.
Procedure: as §1
Solubility of the ingredient (B) in an aqueous solution of 1 mmol/L calcium chloride was determined in the same way as above.

Row | Structure (SMILES) | Vapor pressure kPa (at 25° C.) [1] [kPa] | Relative Permittivity (at 25° C.) [2] | Solubility in Aqueous solution of 1 mmol/L calcium chloride [4] | other results
1 | CC(O)CCO (stereo not shown) [1,3-dibutylene glycol] | 108 | 33.5 | – | –
2 | OCCOCCO [Diethylene glycol] | 11 | 33.0 | – | –
3 | CC(O)COC(C)CO (stereo not shown) [Dipropylene glycol] | 0 | 26.2 | – | –
4 | CCCCCCCC/C=C\CCCCCCCCCCCC(=O)O [Erucic acid] | – | – | X (solubility less than 0.1 g (with undissolved residues)) | Solubility in PEG#300 (Av. MW 280-320) [3]: ◯ (solubility more than 0.1 g (no undissolved residues))
5 | CCO [Ethanol] | 7948 | 24.6 | – | –
6 | OCCO [Ethylene glycol] | 59 | 37.7 | – | –
7 | OCC(O)CO [Glycerin] | 3 | 42.5 | – | –
8 | CC(C)O [Isopropanol] | 5819 | 19.9 | – | –
9 | CCCCCCCCCCCC(=O)O [Lauric acid, reference compound] | – | – | ◯ (solubility more than 0.1 g (no undissolved residues)) | Solubility in 1,3-butylene glycol ([3]; 37° C.): ◯ (solubility more than 0.1 g (no undissolved residues))
10 | CCCCCCCCCCCCCC(=O)O [Myristic acid] | – | – | X (solubility less than 0.1 g (with undissolved residues)) | Solubility in PEG#300 (Av. MW 280-320) [3]: ◯ (solubility more than 0.1 g (no undissolved residues))
11 | CCCCCCCC/C=C\CCCCCCCC(=O)O [Oleic acid] | – | – | X (solubility less than 0.1 g (with undissolved residues)) | Solubility in PEG#300 (Av. MW 280-320) [3]: ◯ (solubility more than 0.1 g (no undissolved residues))
12 | CCCCCC/C=C\CCCCCCCC(=O)O [Palmitoleic acid] | – | – | X (solubility less than 0.1 g (with undissolved residues)) | Solubility in 1,3-butylene glycol ([3]; 37° C.): ◯ (solubility more than 0.1 g (no undissolved residues)); Solubility in PEG#300 (Av. MW 280-320) [3]: ◯ (solubility more than 0.1 g (no undissolved residues)); Solubility in Propylene glycol ([3]; 0.1 g in 100 g Propylene glycol, 37° C.): ◯ (solubility more than 0.1 g (no undissolved residues))
13 | CC(O)CO (stereo not shown) [Propylene glycol] | 1 | 32.0 | – | –
14 | O [Water] | – | 78.3 | – | –
15 | [Cl-].[Cl-].[Zn+2] [Zinc chloride, reference compound] | – | – | ◯ (solubility more than 0.1 g (no undissolved residues)) | Solubility in 1,3-butylene glycol ([3]; 37° C.): ◯ (solubility more than 0.1 g (no undissolved residues))

Reference: patent US20070122360A1, “Nonaqueous gel composition for tooth whitening and tooth whitening set” (LION CORPORATION, priority 2003, published 2007)
